Laboratory results: patent publication US20240009191A1, “METHOD AND COMPOSITION FOR THE TREATMENT OF DISEASE” (DIMERIX BIOSCIENCE PTY LTD, priority 2019, published 2024)

What was measured:
Type in all cases: cell-based
AT1R-CXCR2 heteromer [1] = target: T1, AT1R-CXCR2 heteromer (Homo sapiens, UniProt P25025+P30556); experiment: BRET trafficking of CXCR2/Rluc8 (Venus/Kras, Rab5, Rab8) with HA-AT1R, pre-treatment with vehicle or antagonists/inverse agonists; conditions: 50 minutes after pre-treatment (10 μM)
T1 sequence (P25025 1-360): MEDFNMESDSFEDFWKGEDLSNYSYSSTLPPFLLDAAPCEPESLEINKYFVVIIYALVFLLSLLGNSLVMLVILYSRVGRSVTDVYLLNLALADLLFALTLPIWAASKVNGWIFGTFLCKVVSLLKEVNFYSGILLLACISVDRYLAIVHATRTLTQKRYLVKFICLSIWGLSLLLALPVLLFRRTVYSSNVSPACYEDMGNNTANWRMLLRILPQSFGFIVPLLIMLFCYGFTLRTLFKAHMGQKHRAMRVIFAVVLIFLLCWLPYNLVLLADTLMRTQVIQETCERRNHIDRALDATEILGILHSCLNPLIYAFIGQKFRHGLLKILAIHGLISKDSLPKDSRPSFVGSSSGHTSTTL
T1 sequence (P30556 1-359): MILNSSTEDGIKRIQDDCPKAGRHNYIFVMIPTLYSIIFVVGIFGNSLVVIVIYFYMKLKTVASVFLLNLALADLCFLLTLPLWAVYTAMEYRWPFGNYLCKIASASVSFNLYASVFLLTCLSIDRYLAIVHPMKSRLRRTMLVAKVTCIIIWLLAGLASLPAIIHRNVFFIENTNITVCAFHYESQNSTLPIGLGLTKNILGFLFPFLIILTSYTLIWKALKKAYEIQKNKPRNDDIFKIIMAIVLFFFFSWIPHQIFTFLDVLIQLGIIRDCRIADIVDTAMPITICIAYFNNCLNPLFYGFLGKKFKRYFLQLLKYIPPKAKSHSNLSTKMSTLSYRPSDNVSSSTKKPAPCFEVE
Procedure: (§1) HEK293FT cells were seeded in 6-well plates at a density of approximately 700,000 cells/well and maintained at 37° C., 5% CO2 in Complete Media (DMEM containing 0.3 mg/ml glutamine, 100 IU/ml penicillin and 100 μg/ml streptomycin (Gibco/Thermo Fisher)) supplemented with 10% fetal calf serum (FCS; Bovogen). Transient transfections were carried out 24 h after seeding using FuGene6™ (Promega) according to manufacturer instructions. 24 h post-transfection, cells were washed with PBS, detached using 0.05% trypsin/0.53 mM EDTA, resuspended in HEPES-buffered phenol red free Complete Media containing 5% FCS and added to a poly-L-lysine-coated white 96-well microplate (Greiner Bio-One). 48 h post-transfection, bioluminescence resonance energy transfer (BRET) assays were carried out following pre-incubation of cells with EnduRen™ (Promega) at a final concentration of 30 μM, at 37° C., 5% CO2 for 2 h. BRET measurements were taken at 37° C. using the LUMlstar™ or CLARIOstar™ (BMG Labtech).
(§2) For antagonist/inverse agonist assays, cells were pre-incubated with EnduRen for 1.5 hours, followed by the addition of vehicle or antagonists/inverse agonists (10 μM) for another 30 minutes.
(§3) The BRET signal observed between interacting proteins is normalized by subtracting the background BRET ratio. […] In the following examples, the second calculation will be used and the signal is described as ligand-induced BRET′. Furthermore, for data shown in FIGS. 4 to 20, all data points in a given set are corrected relative to the final data point prior to agonist treatment, which is fixed to zero. In keys on FIGS. 7 to 20, “>” means “followed by after 50 minutes”, with agonists added at time zero on the x-axes.
(§4) Prior to agonist treatment (added at 0 minutes), a baseline BRET signal was recorded for each of the combinations for 20 minutes. Data were calculated as ligand-induced BRET relative to the ‘vehicle followed by vehicle’ (veh>veh) data set.

AT1R-CXCR2 heteromer [2] = target: T1, AT1R-CXCR2 heteromer; experiment: BRET Gi coupling, CXCR2/Rluc8, Venus/mGsi and HA-AT1R, pre-treatment with antagonists/inverse agonists; conditions: FIGS. 6-15
Procedure: as §1, §2, §3, §4

AT1R-CXCR2 heteromer [3] = target: T2, AT1R-CXCR2 heteromer (Homo sapiens, UniProt P25025+P30556); experiment: BRET trafficking of AT1R/Rluc8 (Venus/Kras, Rab5) with unlabelled CXCR2, pre-treatment with vehicle or antagonists/inverse agonists; conditions: 50 minutes after pre-treatment (10 μM)
T2 sequence (P30556 1-359): T1 sequence (P30556 1-359)
T2 sequence (P25025 1-360): T1 sequence (P25025 1-360)
Procedure: as §1, §2, §3, §4

CCCCC(=O)N(Cc1ccc(-c2ccccc2-c2nnn[nH]2)cc1)[C@H](C(=O)O)C(C)C [valsartan]
effect of both CXCL8 and AngII combined on CXCR2/Rluc8-Venus/Kras BRET (AT1R-CXCR2 heteromer [1]; 10 nM CXCL8 and 100 nM AngII, FIG. 16C, 16E-16H): indistinguishable from the effect observed with CXCL8 only | effect of both CXCL8 and AngII combined on CXCR2/Rluc8-Venus/Rab5 BRET (AT1R-CXCR2 heteromer [1]; 10 nM CXCL8 and 100 nM AngII, FIG. 17C, 17E-17H): indistinguishable from the effect observed with CXCL8 only | effect of both CXCL8 and AngII combined on CXCR2/Rluc8-Venus/Rab8 BRET (AT1R-CXCR2 heteromer [1]; 10 nM CXCL8 and 100 nM AngII, FIG. 18C, 18E-18H): completely inhibited | effect of AngII on CXCR2/Rluc8-Venus/Kras BRET (AT1R-CXCR2 heteromer [1]; 100 nM AngII only, FIG. 16B, 16D): completely inhibited | effect of AngII on CXCR2/Rluc8-Venus/Rab5 BRET (AT1R-CXCR2 heteromer [1]; 100 nM AngII only, FIG. 17B, 17D): completely inhibited | effect of AngII on CXCR2/Rluc8-Venus/Rab8 BRET (AT1R-CXCR2 heteromer [1]; 100 nM AngII only, FIG. 18B, 18D): completely inhibited | effect of CXCL8 only on CXCR2/Rluc8-Venus/mGsi BRET (AT1R-CXCR2 heteromer [2]; 10 nM CXCL8, 50 minutes after pre-treatment with antagonists/inverse agonists (10 μM)): not being altered | effect of CXCL8 and AngII combined on CXCR2/Rluc8-Venus/mGsi BRET (AT1R-CXCR2 heteromer [2]; 10 nM CXCL8 and 100 nM AngII, 50 minutes after pre-treatment with antagonists/inverse agonists (10 μM)): indistinguishable from that observed with CXCL8 only | effect of AngII only on CXCR2/Rluc8-Venus/mGsi BRET (AT1R-CXCR2 heteromer [2]; 100 nM AngII, 50 minutes after pre-treatment with antagonists/inverse agonists (10 μM)): completely inhibited | effect of both CXCL8 and AngII combined on AT1R/Rluc8-Venus/Kras BRET (AT1R-CXCR2 heteromer [3]; 10 nM CXCL8 and 100 nM AngII, FIG. 19B-19F): completely inhibited | effect of both CXCL8 and AngII combined on AT1R/Rluc8-Venus/Rab5 BRET (AT1R-CXCR2 heteromer [3]; 10 nM CXCL8 and 100 nM AngII, FIG. 20B-20F): completely inhibited | effect of AngII on AT1R/Rluc8-Venus/Kras BRET (AT1R-CXCR2 heteromer [3]; 100 nM AngII only, FIG. 19A): completely inhibited | effect of AngII on AT1R/Rluc8-Venus/Rab5 BRET (AT1R-CXCR2 heteromer [3]; 100 nM AngII only, FIG. 20A): completely inhibited
